In patent US20160303095A1, “METHODS OF TREATING HEPATITIS B VIRUS” (Gilead Sciences, Inc., priority 2015, published 2016):

Biological target: T1, KDM4C (Homo sapiens, UniProt Q9H3R0)
T1 sequence (Q9H3R0 1-1056): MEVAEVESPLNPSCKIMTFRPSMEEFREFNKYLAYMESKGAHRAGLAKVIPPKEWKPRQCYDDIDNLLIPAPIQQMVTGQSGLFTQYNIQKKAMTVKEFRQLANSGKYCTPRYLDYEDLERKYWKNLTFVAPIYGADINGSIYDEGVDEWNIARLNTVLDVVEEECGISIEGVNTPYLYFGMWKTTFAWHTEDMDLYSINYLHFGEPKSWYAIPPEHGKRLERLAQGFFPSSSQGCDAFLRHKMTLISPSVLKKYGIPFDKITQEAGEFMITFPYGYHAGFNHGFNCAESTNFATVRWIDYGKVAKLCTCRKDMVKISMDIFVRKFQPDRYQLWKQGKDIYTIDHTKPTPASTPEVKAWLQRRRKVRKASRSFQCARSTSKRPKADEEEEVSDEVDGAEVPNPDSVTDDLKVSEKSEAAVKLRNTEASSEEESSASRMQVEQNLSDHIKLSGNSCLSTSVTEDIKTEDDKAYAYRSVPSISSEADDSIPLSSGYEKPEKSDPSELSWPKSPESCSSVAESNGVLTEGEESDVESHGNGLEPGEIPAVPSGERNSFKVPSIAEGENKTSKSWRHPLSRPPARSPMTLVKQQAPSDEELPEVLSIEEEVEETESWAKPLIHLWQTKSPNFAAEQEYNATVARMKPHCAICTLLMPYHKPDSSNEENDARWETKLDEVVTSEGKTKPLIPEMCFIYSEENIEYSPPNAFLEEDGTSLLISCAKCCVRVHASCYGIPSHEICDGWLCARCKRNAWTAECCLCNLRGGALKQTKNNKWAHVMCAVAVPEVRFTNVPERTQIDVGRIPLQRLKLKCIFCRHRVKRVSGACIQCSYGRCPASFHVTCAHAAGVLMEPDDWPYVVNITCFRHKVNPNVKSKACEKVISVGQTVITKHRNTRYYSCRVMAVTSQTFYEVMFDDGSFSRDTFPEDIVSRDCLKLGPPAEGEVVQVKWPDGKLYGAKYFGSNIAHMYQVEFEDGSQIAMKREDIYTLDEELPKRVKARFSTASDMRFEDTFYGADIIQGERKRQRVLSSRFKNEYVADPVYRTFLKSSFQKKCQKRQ
Test: Biochemical KDM inhibition assay (LANCE), KDM4C
Details: read-out: Biochemical IC50 KDM 4C

Question: Which IC50 does the source give for Nc1c(C(=O)O)ccnc1C(=O)O [Example 7, reference compound] here?
Answer: 110 nM

Question: For Cc1cc(Cl)ccc1COc1ccnn1-c1cc(C(=O)O)ccn1 [Example 11], which IC50 is on record?
Answer: 110 nM

Question: For N#CNC(=O)c1ccncc1Nc1nn(CCN2CCC(F)(F)CC2)c2ccc(F)cc12 [Example 14], which IC50 is on record?
Answer: 3100 nM

Question: Which IC50 does the source give for O=C(O)c1ccncc1Nc1nn(CCN2CCC(F)(F)CC2)c2ccc(F)cc12 [Example 13] here?
Answer: 260 nM

Question: For CCN(CCN(C)C)C(=O)CNCc1cc(C(=O)O)ccn1 [Example 9], which IC50 is on record?
Answer: 57 nM

Question: For CCN(CC)CCCCNCc1cc(C(=O)O)ccn1 [Example 18], which IC50 is on record?
Answer: 350 nM

Biological target: T2, KDM5D (Homo sapiens, UniProt Q9BY66)
T2 construct: host or cells: Sf9 cells
Test: Biochemical KDM inhibition assay (LANCE), KDM5D
Details: read-out: Biochemical IC50 KDM 5D
Description: (§1) Representative compounds were characterized for their inhibition of KDM5 using biotinylated histone substrates. Inhibition was measured in vitro (CEREP Poitier, Le Bois l'Evêque, France) following experimental conditions described in Table 2. Briefly, the test compound, reference compound or water (control) was mixed with about 2-20 ng of recombinant, Human enzymes expressed in Sf9 cells in a buffer containing 45 mM Hepes/Tris (pH 7), 5 μM FAS, 100 μM ascorbic acid, 10 μM 2-oxoglutarate, 0.01% Tween 20 and 0.01% BSA. Thereafter, the reaction was initiated by adding the biotin-labeled substrate, and the mixture was incubated for 10-30 min at room temperature. For basal control measurements, the enzyme was omitted from the reaction mixture. Following incubation the reaction was stopped by adding 1 mM EDTA. After 5 min, the anti-methyl histone antibody labeled with europium chelate and the Ulight streptavidine (Perkin Elmer Waltham, Mass.) were added. After 60 min more, the fluorescence transfer was measured at λex=320 nm and λem=620 and λem=665 nm using a microplate reader (Envision, Perkin Elmer) (LANCE). The enzyme activity was determined by dividing the signal measured at λem=665 nm by that measured at 620 nm (ratio).

T2 sequence (Q9BY66 whole entry): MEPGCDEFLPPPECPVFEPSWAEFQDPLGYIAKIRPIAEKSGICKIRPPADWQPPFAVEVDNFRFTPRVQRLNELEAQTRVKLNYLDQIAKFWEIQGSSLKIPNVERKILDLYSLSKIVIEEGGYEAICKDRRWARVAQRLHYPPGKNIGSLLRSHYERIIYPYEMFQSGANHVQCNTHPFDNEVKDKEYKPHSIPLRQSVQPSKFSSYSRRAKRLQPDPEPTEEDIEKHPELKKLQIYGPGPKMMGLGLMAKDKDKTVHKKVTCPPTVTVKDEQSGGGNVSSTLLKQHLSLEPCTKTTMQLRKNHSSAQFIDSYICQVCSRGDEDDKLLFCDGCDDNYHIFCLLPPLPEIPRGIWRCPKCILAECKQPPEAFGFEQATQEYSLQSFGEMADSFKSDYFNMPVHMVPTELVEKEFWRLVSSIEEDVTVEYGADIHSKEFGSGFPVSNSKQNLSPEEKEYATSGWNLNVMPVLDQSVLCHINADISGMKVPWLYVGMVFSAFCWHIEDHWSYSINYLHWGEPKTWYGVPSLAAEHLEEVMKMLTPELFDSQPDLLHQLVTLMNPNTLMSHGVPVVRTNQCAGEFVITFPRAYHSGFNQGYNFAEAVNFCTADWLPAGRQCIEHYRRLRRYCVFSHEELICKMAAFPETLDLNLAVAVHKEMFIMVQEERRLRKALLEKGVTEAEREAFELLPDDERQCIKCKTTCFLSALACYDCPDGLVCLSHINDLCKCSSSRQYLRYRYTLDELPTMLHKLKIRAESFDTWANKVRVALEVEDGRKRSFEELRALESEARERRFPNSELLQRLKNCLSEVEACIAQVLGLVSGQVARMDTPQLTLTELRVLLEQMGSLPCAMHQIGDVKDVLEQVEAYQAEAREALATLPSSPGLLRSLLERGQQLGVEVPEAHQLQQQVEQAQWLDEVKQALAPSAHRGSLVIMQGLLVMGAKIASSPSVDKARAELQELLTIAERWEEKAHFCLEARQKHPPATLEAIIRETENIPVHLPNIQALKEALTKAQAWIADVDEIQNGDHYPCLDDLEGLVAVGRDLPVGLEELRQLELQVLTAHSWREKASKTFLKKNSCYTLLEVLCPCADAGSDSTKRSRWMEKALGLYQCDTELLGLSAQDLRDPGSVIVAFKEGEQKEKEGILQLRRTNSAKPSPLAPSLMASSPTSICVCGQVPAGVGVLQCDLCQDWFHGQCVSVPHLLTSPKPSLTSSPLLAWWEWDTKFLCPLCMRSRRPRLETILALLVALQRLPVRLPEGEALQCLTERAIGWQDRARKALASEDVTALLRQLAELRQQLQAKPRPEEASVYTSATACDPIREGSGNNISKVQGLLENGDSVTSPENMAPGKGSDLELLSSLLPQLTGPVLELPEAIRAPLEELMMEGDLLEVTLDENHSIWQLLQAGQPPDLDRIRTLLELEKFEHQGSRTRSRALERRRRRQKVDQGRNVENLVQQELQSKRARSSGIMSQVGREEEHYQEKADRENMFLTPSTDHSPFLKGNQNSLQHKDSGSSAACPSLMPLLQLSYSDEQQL

Question: With Nc1c(C(=O)O)ccnc1C(=O)O [Example 7, reference compound] as the molecule, how does the IC50 read?
Answer: 700 nM

Question: For Cc1cc(Cl)ccc1COc1ccnn1-c1cc(C(=O)O)ccn1 [Example 11], which IC50 is on record?
Answer: 98 nM

Question: With N#CNC(=O)c1ccncc1Nc1nn(CCN2CCC(F)(F)CC2)c2ccc(F)cc12 [Example 14] as the molecule, how does the IC50 read?
Answer: 85 nM

Question: With O=C(O)c1ccncc1Nc1nn(CCN2CCC(F)(F)CC2)c2ccc(F)cc12 [Example 13] as the molecule, how does the IC50 read?
Answer: 65 nM

Question: With CCN(CCN(C)C)C(=O)CNCc1cc(C(=O)O)ccn1 [Example 9] as the molecule, how does the IC50 read?
Answer: 66 nM

Question: With CCN(CC)CCCCNCc1cc(C(=O)O)ccn1 [Example 18] as the molecule, how does the IC50 read?
Answer: 33 nM

Biological target: KDM5A (Homo sapiens, UniProt P29375)
Test: Biochemical KDM inhibition assay (LANCE), KDM5A
Details: read-out: Biochemical IC50 KDM 5A
Description: as §1

KDM5A, sequence (P29375 whole entry): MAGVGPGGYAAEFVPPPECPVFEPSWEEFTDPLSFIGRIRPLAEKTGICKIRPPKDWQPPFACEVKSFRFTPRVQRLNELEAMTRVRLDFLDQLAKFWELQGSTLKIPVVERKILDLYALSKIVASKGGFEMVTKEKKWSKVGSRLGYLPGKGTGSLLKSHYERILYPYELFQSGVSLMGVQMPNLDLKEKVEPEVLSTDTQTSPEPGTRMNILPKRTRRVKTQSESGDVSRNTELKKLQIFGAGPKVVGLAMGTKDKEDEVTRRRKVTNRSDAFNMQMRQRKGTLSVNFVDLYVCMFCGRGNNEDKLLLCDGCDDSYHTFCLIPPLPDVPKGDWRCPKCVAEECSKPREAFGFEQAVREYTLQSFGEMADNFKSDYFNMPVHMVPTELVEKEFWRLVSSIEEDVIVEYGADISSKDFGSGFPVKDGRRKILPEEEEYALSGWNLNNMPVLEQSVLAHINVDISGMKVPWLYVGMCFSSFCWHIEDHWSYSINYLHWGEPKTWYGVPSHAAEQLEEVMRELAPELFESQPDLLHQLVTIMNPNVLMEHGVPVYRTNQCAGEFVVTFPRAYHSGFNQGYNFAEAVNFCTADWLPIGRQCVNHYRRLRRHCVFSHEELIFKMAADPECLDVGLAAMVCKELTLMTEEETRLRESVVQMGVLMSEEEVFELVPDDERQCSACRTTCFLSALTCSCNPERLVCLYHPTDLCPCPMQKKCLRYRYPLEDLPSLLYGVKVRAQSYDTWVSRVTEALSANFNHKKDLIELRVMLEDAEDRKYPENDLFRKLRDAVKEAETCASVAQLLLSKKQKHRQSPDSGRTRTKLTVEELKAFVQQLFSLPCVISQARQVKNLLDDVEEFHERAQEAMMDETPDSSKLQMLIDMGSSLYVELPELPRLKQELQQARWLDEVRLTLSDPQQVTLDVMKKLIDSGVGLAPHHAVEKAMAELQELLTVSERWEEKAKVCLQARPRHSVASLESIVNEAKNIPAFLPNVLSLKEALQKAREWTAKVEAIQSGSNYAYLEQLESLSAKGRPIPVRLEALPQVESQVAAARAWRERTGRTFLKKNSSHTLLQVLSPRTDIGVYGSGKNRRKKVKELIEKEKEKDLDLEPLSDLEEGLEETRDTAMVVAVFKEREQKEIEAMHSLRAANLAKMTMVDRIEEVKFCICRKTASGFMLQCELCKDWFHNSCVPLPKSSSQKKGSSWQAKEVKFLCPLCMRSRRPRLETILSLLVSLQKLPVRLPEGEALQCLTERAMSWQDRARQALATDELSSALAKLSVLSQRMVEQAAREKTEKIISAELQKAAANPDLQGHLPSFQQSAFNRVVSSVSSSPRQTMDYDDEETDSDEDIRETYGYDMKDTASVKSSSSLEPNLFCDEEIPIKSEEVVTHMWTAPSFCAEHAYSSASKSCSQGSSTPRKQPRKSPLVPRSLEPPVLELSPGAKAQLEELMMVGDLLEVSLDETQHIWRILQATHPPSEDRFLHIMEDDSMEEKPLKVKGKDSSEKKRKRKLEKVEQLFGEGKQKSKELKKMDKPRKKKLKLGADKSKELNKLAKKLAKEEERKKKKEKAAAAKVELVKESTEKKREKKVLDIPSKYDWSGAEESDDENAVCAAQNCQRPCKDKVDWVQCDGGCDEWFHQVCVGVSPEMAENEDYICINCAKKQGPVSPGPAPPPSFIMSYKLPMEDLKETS

Question: For Nc1c(C(=O)O)ccnc1C(=O)O [Example 7, reference compound], which IC50 is on record?
Answer: 1200 nM

Question: With Cc1cc(Cl)ccc1COc1ccnn1-c1cc(C(=O)O)ccn1 [Example 11] as the molecule, how does the IC50 read?
Answer: 28 nM

Question: For N#CNC(=O)c1ccncc1Nc1nn(CCN2CCC(F)(F)CC2)c2ccc(F)cc12 [Example 14], which IC50 is on record?
Answer: 29 nM

Question: With O=C(O)c1ccncc1Nc1nn(CCN2CCC(F)(F)CC2)c2ccc(F)cc12 [Example 13] as the molecule, how does the IC50 read?
Answer: 21 nM

Question: Which IC50 does the source give for CCN(CCN(C)C)C(=O)CNCc1cc(C(=O)O)ccn1 [Example 9] here?
Answer: 24 nM

Question: With CCN(CC)CCCCNCc1cc(C(=O)O)ccn1 [Example 18] as the molecule, how does the IC50 read?
Answer: 11 nM

System: not listed separately
Test: Alamar Blue cell viability assay
Format: cell-based
Details: human
Description: Alamar Blue cell viability reagent (Cat#DAL1100 Life Technologies, Chicago, Ill.) was diluted 1 to 10 in Maintenance Media and added to the cells. Cells were incubated for 4 h at 37° C. and the fluorescence signal, which is proportional to the number of live cells, was read using a fluorimeter with excitation/emission spectra set at 560/590 nm, respectively. Data were converted into percentages of the untreated control and non-linear regression was performed to calculate CC50 values.
PHH were plated in collagen coated tissue culture plates in Plating Media and after 4-hour incubation at 37° C., cells were switched to Maintenance Media. On the next day, the cells were infected with 500 genome equivalents per cell of Genotype-A clinical isolate 21P (ProteoGenex, Culver City, Calif.) in 100 μl Maintenance Media supplemented with 4% PEG 8000 (Cat#V3011 Promega, Madison, Wis.). After an overnight incubation the inoculum was removed and the cells were washed three times with William's Media E and maintained in Maintenance Media. […] Following the transfection, the cells were incubated at 37° C. in a humidified incubator and media was changed every 3-4 days. The assay was terminated on day 14 post infection and cell viability was assessed by Alamar Blue. The collected medium was used for determination of HBsAg and HBeAg levels by MSD ELISA while cells were processed for determination of HBV RNA using qPCR.

Question: For Nc1c(C(=O)O)ccnc1C(=O)O [Example 7, reference compound], which CC50 is on record?
Answer: ≥ 100000 nM

Question: For Cc1cc(Cl)ccc1COc1ccnn1-c1cc(C(=O)O)ccn1 [Example 11], which CC50 is on record?
Answer: ≥ 50000 nM

Question: Which CC50 does the source give for N#CNC(=O)c1ccncc1Nc1nn(CCN2CCC(F)(F)CC2)c2ccc(F)cc12 [Example 14] here?
Answer: ≥ 50000 nM

Question: Which CC50 does the source give for O=C(O)c1ccncc1Nc1nn(CCN2CCC(F)(F)CC2)c2ccc(F)cc12 [Example 13] here?
Answer: ≥ 50000 nM

Question: For CCN(CCN(C)C)C(=O)CNCc1cc(C(=O)O)ccn1 [Example 9], which CC50 is on record?
Answer: ≥ 50000 nM

Question: With CCOC(=O)c1ccnc(CNCC(=O)N(CC)CCN(C)C)c1 [Example 8] as the molecule, how does the CC50 read?
Answer: 28200 nM

Biological target: T3, KDM4E (Homo sapiens, UniProt B2RXH2)
T3 construct: host or cells: Sf9 cells
T3 sequence (B2RXH2 1-506): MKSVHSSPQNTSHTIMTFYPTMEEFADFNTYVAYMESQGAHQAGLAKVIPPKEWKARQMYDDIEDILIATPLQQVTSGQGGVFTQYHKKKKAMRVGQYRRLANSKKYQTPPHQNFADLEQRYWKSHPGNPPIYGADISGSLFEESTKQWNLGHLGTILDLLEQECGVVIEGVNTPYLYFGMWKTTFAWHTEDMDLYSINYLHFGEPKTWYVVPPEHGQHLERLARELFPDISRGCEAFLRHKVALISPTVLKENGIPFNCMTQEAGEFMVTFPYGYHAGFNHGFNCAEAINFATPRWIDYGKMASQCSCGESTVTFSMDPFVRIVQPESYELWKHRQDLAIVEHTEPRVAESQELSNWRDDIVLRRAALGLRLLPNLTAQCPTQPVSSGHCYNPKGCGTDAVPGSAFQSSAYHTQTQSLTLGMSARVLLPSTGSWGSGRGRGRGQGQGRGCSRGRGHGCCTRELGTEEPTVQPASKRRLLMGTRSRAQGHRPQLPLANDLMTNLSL
Test: Biochemical KDM inhibition assay (LANCE), KDM4E
Details: read-out: Biochemical IC50 KDM 4E

Question: Which IC50 does the source give for Nc1c(C(=O)O)ccnc1C(=O)O [Example 7, reference compound] here?
Answer: 64 nM

Question: Which IC50 does the source give for Cc1cc(Cl)ccc1COc1ccnn1-c1cc(C(=O)O)ccn1 [Example 11] here?
Answer: 110 nM

Question: Which IC50 does the source give for N#CNC(=O)c1ccncc1Nc1nn(CCN2CCC(F)(F)CC2)c2ccc(F)cc12 [Example 14] here?
Answer: 2300 nM

Question: With O=C(O)c1ccncc1Nc1nn(CCN2CCC(F)(F)CC2)c2ccc(F)cc12 [Example 13] as the molecule, how does the IC50 read?
Answer: 670 nM

Question: With CCN(CCN(C)C)C(=O)CNCc1cc(C(=O)O)ccn1 [Example 9] as the molecule, how does the IC50 read?
Answer: 35 nM

Question: Which IC50 does the source give for CCN(CC)CCCCNCc1cc(C(=O)O)ccn1 [Example 18] here?
Answer: 1200 nM

Biological target: T4, KDM5B (Homo sapiens, UniProt Q9UGL1)
T4 construct: host or cells: Sf9 cells
Test: Biochemical KDM inhibition assay (LANCE), KDM5B
Details: read-out: Biochemical IC50 KDM 5B
Description: as §1

T4 sequence (Q9UGL1 whole entry): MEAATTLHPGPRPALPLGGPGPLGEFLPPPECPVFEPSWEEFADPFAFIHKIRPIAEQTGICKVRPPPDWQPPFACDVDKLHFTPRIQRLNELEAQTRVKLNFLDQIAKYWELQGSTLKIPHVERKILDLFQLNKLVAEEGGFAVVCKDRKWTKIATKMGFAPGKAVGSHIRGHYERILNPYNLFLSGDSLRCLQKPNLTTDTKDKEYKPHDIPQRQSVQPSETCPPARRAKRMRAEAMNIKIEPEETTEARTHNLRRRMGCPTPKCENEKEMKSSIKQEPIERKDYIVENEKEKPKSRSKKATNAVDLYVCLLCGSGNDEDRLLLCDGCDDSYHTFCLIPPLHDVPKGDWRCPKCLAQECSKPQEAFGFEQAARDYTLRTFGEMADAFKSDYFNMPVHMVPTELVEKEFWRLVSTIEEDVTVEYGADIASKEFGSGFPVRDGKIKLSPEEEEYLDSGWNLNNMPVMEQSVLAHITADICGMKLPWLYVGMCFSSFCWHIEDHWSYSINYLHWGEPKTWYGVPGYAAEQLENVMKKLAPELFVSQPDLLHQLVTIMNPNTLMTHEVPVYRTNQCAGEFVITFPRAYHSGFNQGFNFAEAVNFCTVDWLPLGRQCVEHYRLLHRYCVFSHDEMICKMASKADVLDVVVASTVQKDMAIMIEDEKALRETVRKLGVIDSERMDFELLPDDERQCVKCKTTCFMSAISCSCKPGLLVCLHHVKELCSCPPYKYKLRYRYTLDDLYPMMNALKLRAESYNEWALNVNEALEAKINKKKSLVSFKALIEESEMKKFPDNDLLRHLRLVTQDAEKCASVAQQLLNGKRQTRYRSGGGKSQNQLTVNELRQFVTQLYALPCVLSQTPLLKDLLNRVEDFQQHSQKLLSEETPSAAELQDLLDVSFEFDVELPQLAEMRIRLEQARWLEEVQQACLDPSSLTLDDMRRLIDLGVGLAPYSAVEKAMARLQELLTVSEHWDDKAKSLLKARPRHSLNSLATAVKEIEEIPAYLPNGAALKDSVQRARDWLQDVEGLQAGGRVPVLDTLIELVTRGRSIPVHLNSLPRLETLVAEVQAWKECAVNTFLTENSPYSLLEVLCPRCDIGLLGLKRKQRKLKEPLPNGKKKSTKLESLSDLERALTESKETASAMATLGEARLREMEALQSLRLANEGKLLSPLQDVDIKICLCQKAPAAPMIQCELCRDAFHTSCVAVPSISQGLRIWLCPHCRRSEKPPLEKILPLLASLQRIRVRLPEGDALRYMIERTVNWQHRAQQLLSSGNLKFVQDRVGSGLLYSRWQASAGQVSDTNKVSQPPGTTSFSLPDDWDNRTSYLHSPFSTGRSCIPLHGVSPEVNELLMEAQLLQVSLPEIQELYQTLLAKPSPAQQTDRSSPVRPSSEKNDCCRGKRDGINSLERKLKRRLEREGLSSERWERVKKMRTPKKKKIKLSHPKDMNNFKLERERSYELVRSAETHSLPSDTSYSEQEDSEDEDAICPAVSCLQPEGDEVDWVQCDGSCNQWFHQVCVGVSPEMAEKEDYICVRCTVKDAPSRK

Question: For Nc1c(C(=O)O)ccnc1C(=O)O [Example 7, reference compound], which IC50 is on record?
Answer: 510 nM

Question: Which IC50 does the source give for Cc1cc(Cl)ccc1COc1ccnn1-c1cc(C(=O)O)ccn1 [Example 11] here?
Answer: 36 nM

Question: For N#CNC(=O)c1ccncc1Nc1nn(CCN2CCC(F)(F)CC2)c2ccc(F)cc12 [Example 14], which IC50 is on record?
Answer: 14 nM

Question: With O=C(O)c1ccncc1Nc1nn(CCN2CCC(F)(F)CC2)c2ccc(F)cc12 [Example 13] as the molecule, how does the IC50 read?
Answer: 21 nM

Question: For CCN(CCN(C)C)C(=O)CNCc1cc(C(=O)O)ccn1 [Example 9], which IC50 is on record?
Answer: 14 nM

Question: For CCN(CC)CCCCNCc1cc(C(=O)O)ccn1 [Example 18], which IC50 is on record?
Answer: 3.1 nM
